Measured values published in PMC10877733, “Discovery and Characterization of VU0542270, the First Selective Inhibitor of Vascular Kir6.1/SUR2B KATP Channels” (Molecular Pharmacology, 2024).
pIC50: −log10 of the molar value. Entries after “also recorded” stand apart in the source; their conditions may differ.

Assays:
Kir2.1 = target: T1, Kir2.1 (Homo sapiens, UniProt P63252); assay: Thallium flux selectivity assay Kir2.1; assay type: cell-based
T1 construct: expressed in transfected cells
T1 sequence (P63252 1-427): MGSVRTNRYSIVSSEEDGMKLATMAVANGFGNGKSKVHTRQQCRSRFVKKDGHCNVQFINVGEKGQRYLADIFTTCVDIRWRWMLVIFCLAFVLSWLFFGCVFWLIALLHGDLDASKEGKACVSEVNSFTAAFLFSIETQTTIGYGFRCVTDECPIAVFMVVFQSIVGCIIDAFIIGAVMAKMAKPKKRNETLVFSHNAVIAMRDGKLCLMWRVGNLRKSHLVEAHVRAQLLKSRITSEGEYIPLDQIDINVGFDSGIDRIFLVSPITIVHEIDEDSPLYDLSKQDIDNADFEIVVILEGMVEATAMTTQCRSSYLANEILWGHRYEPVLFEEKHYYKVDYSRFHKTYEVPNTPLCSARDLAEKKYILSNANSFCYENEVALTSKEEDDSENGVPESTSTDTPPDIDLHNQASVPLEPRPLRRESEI
Protocol: Quantitative thallium flux assays of Kir6.1/SUR2B activity were performed essentially as described previously for Kir6.2/SUR1 ([Raphemot et al., 2014]; [Kharade et al., 2019]). Stable T-Rex-HEK293-Kir6.1/SUR2B cells or transiently transfected HEK293T cells were plated in polyamine-coated, clear-bottomed, black-walled 384-well plates and were cultured (37°C/5% CO2) overnight in Dulbecco’s modified Eagle’s medium (Gibco, Carlsbad, CA, 11995-065) containing 10% FBS (2 mM Penicillin-Streptomycin). The following day, cells were washed with assay buffer (i.e., Hanks’ balanced salt solution/20 mM HEPES) and loaded for 1 hour with thallium sensor dye Brilliant Thallium (Ion Bioscience, San Marcos, TX) at room temperature. Dye-loaded cells were washed with assay buffer and transferred to a Panoptic Kinetic Imaging Plate Reader (Wavefront Bioscience, Franklin, TN). Control and test compound treatments were for 4 minutes prior to adding 0.5 mM chloride-free thallium stimulus buffer (Ion Bioscience) to initiate thallium flux. […] Selectivity assays against other Kir channels were performed essentially as described previously ([Kharade et al., 2018]; [McClenahan et al., 2022]).

[1] = tested on: isolated mouse ductus arteriosus vessels; assay: Pressure myography of isolated ductus arteriosus vessels; details: term gestation mouse DA
Protocol: CD-1 mice were maintained at Vanderbilt University Medical Center in accordance with protocols approved by the Institutional Animal Care and Use Committee. Timed matings were performed to produce offspring at specific stages of development. The presence of a vaginal plug was designated as embryonic day 1.
Term-gestation (embryonic day 19) fetal mouse DAs were isolated and mounted on glass pipet tips in microvessel perfusion chambers as previously reported ([Hooper et al., 2016]). Deoxygenated Krebs buffer was warmed to 37°C and circulated throughout the chamber. Vessels were pressurized in a stepwise manner to physiologic neonatal mouse mean arterial pressure (20 mmHg) and then challenged with 50 mM KCl to test reactivity. […] For dose-response studies, vessels were first dilated by circulating Krebs buffer bubbled with 95% nitrogen, 5% CO2 to mimic the hypoxic conditions of the womb. […] Following each dose, lumen diameters were allowed to plateau (approximately 20 minutes) before the next dose was added. Continuous lumen diameter measurements were recorded using a digital image capture system (IonOptix). An N of >6 vessels from at least three different litters was used for each experimental condition. Changes in lumen diameter are represented as the percent change in diameter compared with the baseline lumen diameter of vessels prior to drug exposure. […] Values represent mean ± S.D.

[2] = Plasma binding by equilibrium dialysis, human; assay type: in vitro ADME; details: equilibrium dialysis 6 hours 37°C, read-out: Fu, plasma (human)
Protocol: Determination of VU0542270 fraction unbound (fu) in plasma from mouse, rat, and human was conducted in vitro via equilibrium dialysis using high-throughput dialysis (HTD) membrane plates. Dialysis membranes (four paired strips per HTD assay) were hydrated as described by the manufacturer and inserted into the HTD plate, which was assembled and prepared for sample addition by the dispensing of blank buffer [Delbecco’s phosphate buffered saline (DPBS), 100 µL/well] into the “top half” of each membrane-split well. VU0542270 was diluted into plasma from each species (5 µM final concentration), which was aliquoted in triplicate to the “bottom half” of the prepared HTD plate wells. The HTD plate was sealed and incubated for 6 hours at 37°C. Following incubation, each well (both top and bottom halves) was transferred (20 µL) to the corresponding well of a 96-shallow-well (V-bottom) plate. […]
fu was calculated as (analyte to IS mass spectrometry (MS) peak area ratio from Trans-buffer side)/(analyte to IS MS peak area ratio from Cis-plasma side). Mean values for each species were calculated from three replicates.

Kir6.2/SUR1 = target: T2, Kir6.2/SUR1 (Homo sapiens, UniProt Q09428); assay: Thallium flux assay of Kir6.2/SUR1 in HEK293 cells; assay type: cell-based
T2 construct: expressed in transfected cells; also transiently transfected HEK293T
T2 sequence (Q09428 whole entry, species assumed): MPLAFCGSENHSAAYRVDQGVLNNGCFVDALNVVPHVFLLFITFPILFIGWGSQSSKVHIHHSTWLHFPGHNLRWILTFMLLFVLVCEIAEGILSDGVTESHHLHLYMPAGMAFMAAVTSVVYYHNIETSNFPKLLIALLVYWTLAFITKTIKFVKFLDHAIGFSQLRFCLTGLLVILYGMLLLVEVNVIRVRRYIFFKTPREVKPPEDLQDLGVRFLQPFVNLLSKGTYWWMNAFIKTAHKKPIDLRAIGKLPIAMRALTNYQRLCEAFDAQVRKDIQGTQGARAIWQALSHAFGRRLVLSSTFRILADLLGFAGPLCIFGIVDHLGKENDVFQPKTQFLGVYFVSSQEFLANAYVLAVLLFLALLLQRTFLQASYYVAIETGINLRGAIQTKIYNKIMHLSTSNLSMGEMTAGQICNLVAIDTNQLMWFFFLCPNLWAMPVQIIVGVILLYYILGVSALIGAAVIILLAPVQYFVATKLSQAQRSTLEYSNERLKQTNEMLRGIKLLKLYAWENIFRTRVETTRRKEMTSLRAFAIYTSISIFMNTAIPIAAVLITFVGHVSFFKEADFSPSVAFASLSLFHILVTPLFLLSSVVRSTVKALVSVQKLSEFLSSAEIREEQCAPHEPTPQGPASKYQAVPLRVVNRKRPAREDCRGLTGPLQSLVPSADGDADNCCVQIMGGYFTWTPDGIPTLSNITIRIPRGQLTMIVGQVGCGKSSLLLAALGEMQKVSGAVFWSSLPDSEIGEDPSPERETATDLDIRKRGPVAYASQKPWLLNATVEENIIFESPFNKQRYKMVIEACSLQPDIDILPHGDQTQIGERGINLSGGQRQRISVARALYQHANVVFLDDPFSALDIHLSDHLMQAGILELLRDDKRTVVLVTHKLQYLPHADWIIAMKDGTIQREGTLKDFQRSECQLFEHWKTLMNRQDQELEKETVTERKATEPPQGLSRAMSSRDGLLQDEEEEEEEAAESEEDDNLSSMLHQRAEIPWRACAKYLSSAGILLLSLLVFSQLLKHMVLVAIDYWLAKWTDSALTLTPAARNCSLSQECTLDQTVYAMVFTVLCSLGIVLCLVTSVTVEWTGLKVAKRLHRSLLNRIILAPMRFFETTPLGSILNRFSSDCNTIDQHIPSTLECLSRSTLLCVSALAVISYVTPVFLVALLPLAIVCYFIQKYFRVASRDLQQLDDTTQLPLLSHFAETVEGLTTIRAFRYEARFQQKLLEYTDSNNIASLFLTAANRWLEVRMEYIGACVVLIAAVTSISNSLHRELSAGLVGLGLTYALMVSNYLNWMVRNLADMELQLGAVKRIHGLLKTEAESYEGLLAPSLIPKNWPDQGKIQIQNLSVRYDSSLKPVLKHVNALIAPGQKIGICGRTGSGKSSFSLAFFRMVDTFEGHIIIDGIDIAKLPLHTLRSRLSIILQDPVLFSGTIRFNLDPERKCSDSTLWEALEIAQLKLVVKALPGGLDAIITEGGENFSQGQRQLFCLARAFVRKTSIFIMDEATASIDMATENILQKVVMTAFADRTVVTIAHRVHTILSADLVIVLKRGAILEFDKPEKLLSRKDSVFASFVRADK
T2 sequence (Q14654 whole entry partner, species assumed): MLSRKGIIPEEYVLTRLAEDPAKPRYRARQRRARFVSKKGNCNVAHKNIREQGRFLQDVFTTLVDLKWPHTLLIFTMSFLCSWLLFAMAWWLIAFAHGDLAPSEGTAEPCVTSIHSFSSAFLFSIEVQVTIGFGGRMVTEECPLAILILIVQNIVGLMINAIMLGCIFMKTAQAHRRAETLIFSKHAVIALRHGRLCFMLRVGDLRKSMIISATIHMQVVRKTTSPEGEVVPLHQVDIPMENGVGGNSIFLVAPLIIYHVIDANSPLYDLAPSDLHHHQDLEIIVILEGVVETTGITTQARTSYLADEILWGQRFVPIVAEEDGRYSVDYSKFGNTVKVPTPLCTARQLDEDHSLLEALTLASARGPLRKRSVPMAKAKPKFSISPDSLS
Protocol: The pcDNA3.1-SUR2B plasmid was generously provided by Dr. Colin Nichols (Washington University). The pcDNA5/TO-Kir6.1 plasmid was synthesized by GenScript. […] For selectivity assays, HEK293T cells were cotransfected with Kir6.x and SURX with Lipofectamine LTX and incubated for 48 hours before thallium flux assays.
Stable T-Rex-HEK293-Kir6.1/SUR2B cells or transiently transfected HEK293T cells were plated in polyamine-coated, clear-bottomed, black-walled 384-well plates and were cultured (37°C/5% CO2) overnight in Dulbecco’s modified Eagle’s medium (Gibco, Carlsbad, CA, 11995-065) containing 10% FBS (2 mM Penicillin-Streptomycin). The following day, cells were washed with assay buffer (i.e., Hanks’ balanced salt solution/20 mM HEPES) and loaded for 1 hour with thallium sensor dye Brilliant Thallium (Ion Bioscience, San Marcos, TX) at room temperature. Dye-loaded cells were washed with assay buffer and transferred to a Panoptic Kinetic Imaging Plate Reader (Wavefront Bioscience, Franklin, TN). Control and test compound treatments were for 4 minutes prior to adding 0.5 mM chloride-free thallium stimulus buffer (Ion Bioscience) to initiate thallium flux.

pIC50 (Kir2.1): < 4.52 | fraction unbound at 6 h, 5 µM [2]: 0.01 | activity toward Kir6.2/SUR1 (Kir6.2/SUR1; doses up to 30 µM): no apparent activity | pIC50 (Kir6.2/SUR1; thallium flux, Table 1 selectivity profile): < 4.52 | Kir6.2/SUR1 IC50, ATP depletion (Kir6.2/SUR1; thallium flux, transfected HEK-293 cells, channels activated by metabolic inhibition (ATP depletion) (Fig. 4B)): failed to inhibit; also recorded: no fit | Kir6.2/SUR1 IC50, VU0071063 activation (Kir6.2/SUR1; thallium flux, transfected HEK-293 cells, channels activated with VU0071063 (Fig. 4A)): failed to inhibit; also recorded: no fit
SMILES: Cc1nc(-c2cccs2)sc1CNC(=O)Nc1cccs1 [VU0542270]
ductus arteriosus vessel constriction ([1]; increasing concentrations, compound alone): induced ductus arteriosus constriction in a dose-dependent manner; also recorded: constricted in a concentration-dependent manner | ductus arteriosus vessel constriction in the presence of pinacidil ([1]; with 10 µM pinacidil): substantially blunted vasoconstrictive effects
